Peptide text beside a SMILES is read from it.
Columns and labels:
[1] = biological target: T1, BK2 receptor (Oryctolagus cuniculus, UniProt Q28642); assay: rabbit jugular vein (RJV) in vitro, antagonism of BK; type: cell-based; settings: Table A; recovery after washing
T1 construct: when administered to an intact animal; from tissue; host or cells: whole rabbit (systemic arterial blood pressure), LPS-pretreated
T1 sequence (Q28642 1-367): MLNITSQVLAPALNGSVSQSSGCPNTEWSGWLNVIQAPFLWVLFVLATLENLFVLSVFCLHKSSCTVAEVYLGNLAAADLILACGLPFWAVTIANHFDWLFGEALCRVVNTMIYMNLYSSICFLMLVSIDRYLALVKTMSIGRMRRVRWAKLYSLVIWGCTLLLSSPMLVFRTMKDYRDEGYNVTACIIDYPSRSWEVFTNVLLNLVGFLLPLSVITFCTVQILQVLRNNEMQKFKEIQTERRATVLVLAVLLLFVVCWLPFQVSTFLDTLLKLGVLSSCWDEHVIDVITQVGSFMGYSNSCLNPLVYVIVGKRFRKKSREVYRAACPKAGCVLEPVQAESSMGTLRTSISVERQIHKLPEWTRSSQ

[2] = tested on: BK-induced hypotension; assay: BK-induced hypotension in the anesthetized rat; type: in vivo; settings: intravenous infusion 9 nmol kg^-1 min^-1; BK 4×10^-9 moles; FIG. 3
Method: After stopping the infusion of CP-0127, it can be seen that the responses to BK returned slowly being fully recovered after approximately 20 minutes.
Using anaesthetized rats, dose-response curves to BK were constructed and the ED50 identified (see FIG. 5a). The ED50 was then injected before and at 15 minute intervals after a single S.C. injection of CP-0127.

[3] = biological target: T2, BK1 receptor (Oryctolagus cuniculus, UniProt P48748); assay: rabbit aorta in vitro, reversal of des-Arg^9 -BK contraction; type: cell-based; settings: Table G; negative log of molar concentration causing 50% reversal of 10^-7 M des-Arg^9 -BK contraction
T2 construct: when administered to an intact animal; from tissue; host or cells: whole rabbit (systemic arterial blood pressure), LPS-pretreated
T2 sequence (P48748 1-352): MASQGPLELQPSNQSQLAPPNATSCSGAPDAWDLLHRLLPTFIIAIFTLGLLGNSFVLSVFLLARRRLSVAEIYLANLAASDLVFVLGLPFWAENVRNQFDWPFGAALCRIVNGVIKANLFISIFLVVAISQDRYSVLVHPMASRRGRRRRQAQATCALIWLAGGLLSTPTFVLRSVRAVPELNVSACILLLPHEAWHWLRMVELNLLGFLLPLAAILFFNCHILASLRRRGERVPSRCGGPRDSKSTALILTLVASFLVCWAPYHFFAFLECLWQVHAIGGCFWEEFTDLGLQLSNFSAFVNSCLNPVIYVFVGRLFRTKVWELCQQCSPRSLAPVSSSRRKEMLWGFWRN

[4] = tested on: BK-induced vascular permeability; assay: rabbit skin vascular permeability to intradermal BK (Evans Blue); type: in vivo
[5] = biological target: T1, BK2 receptor; assay: blood pressure response to BK2 agonist in LPS-pretreated rabbits; type: in vivo, rabbit; parameters: key to OBSERVED ANTAGONIST ACTIVITY BK2: +: indicates complete blockade of the blood pressure response to the appropriate agonist; +/-: indicates partial blockade; -: indicates no observable effect at the dose indicated; settings: rabbits given LPS (10 μg) 20 hours before
[6] = biological target: T3, BK2 receptor (Rattus norvegicus, UniProt P25023); assay: cell-based
T3 sequence (P25023 1-396): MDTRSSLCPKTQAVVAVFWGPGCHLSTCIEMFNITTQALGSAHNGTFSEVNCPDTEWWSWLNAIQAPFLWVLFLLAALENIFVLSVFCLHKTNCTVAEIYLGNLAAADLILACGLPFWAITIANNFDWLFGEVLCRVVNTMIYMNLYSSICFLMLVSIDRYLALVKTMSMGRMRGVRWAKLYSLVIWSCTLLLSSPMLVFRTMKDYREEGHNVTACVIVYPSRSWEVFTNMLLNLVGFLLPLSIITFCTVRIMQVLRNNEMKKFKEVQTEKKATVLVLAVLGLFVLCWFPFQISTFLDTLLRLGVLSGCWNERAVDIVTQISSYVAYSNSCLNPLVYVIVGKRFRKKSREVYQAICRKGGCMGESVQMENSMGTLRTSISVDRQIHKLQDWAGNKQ

[7] = biological target: T4, NK2 receptor (Oryctolagus cuniculus, UniProt P79218); assay: rabbit pulmonary artery, reduction of neurokinin A contraction; type: cell-based; settings: Table R; negative log of molar concentration reducing sustained neurokinin A contraction by 50%; read-out: NK2 Rabbit Pulm Art log (converted)
T4 construct: reduce a sustained contractile response produced by neurokinin A by 50%; from tissue; host or cells: contractile tissue preparation (rabbit pulmonary artery per the earlier reading)
T4 sequence (P79218 1-384): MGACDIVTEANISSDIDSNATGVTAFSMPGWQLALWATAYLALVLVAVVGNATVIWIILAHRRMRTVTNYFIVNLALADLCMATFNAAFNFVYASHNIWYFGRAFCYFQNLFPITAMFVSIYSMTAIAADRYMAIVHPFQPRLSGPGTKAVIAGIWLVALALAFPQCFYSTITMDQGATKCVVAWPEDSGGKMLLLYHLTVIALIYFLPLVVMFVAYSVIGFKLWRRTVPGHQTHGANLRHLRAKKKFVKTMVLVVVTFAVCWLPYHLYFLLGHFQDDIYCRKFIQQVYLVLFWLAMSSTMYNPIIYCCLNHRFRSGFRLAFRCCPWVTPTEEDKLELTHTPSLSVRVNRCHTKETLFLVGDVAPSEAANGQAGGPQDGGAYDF
Method: The heterodimers thus obtained were tested for activity as heretofore described, the results being shown in Table R. In this Table -log [M] represents the negative log of the molar concentration of the antagonist necessary to reduce a sustained contractile response produced by neurokinin A by 50%.

CC(C)C[C@H](NC(=O)[C@@H](Cc1ccccc1)NC(=O)[C@H](CS)NC(=O)[C@H](Cc1ccccc1)NC(=O)CNC(=O)[C@@H]1C[C@@H](O)CN1C(=O)[C@@H]1CCCN1C(=O)[C@H](CCCNC(=N)N)NC(=O)[C@H](N)CCCNC(=N)N)C(=O)N[C@@H](CCCNC(=N)N)C(=O)O [CP-0126] (HELM PEPTIDE1{[dR].R.P.[Hyp].G.F.C.[dF].L.R}$$$$V2.0)
RJV % REC [1]: 60% | inhibition of hypotensive response to BK [2]: almost totally ineffective | BK1 RABBIT AORTA IC50 [3]: Inactive | inhibition of BK-induced skin vascular permeability ([4]; co-injected intradermally with BK, FIG. 2A): more potent than CP-0127 | inhibition of BK-induced skin vascular permeability ([4]; pre-injected 15 or 30 minutes before BK in the same site, FIGS. 2B, 2C): significantly less effective | OBSERVED ANTAGONIST ACTIVITY BK2 ([5]; 1 μg kg^-1 min^-1): + | OBSERVED ANTAGONIST ACTIVITY BK2 ([5]; 3 μg kg^-1 min^-1): + | OBSERVED ANTAGONIST ACTIVITY BK2 ([5]; 10 μg kg^-1 min^-1): +

CC(C)C[C@H](NC(=O)[C@@H](Cc1ccccc1)NC(=O)[C@H](CSC1CC(=O)N(CCCCCCN2C(=O)CC(SC[C@H](NC(=O)[C@@H](Cc3c[nH]c4ccccc34)NC(=O)[C@@H](NC(=O)[C@@H](Cc3c[nH]c4ccccc34)NC(=O)[C@H](Cc3ccc(O)cc3)NC(=O)[C@@H](N)CC(=O)O)C(C)C)C(=O)N[C@@H](CCCNC(=N)N)C(N)=O)C2=O)C1=O)NC(=O)[C@H](Cc1ccccc1)NC(=O)CNC(=O)[C@@H]1C[C@@H](O)CN1C(=O)[C@@H]1CCCN1C(=O)[C@H](CCCNC(=N)N)NC(=O)[C@H](N)CCCNC(=N)N)C(=O)N[C@@H](CCCNC(=N)N)C(=O)O (stereo partly drawn) [CP-0416] (HELM PEPTIDE1{[dR].R.P.[Hyp].G.F.C.[dF].L.R}|PEPTIDE2{D.Y.[dW].V.[dW].C.R.[am]}|CHEM1{[O=C1CC([*:1])C(=O)N1CCCCCCN1C(=O)CC([*:2])C1=O]}$PEPTIDE1,CHEM1,7:R3-1:R1|PEPTIDE2,CHEM1,6:R3-1:R2$$$V2.0; N-terminus assumed)
Kb [6]: 2 nM | IC50 [7]: 2510 nM

CC(C)C[C@H](NC(=O)[C@@H](Cc1ccccc1)NC(=O)[C@H](CSC1CC(=O)N(CCCCCCN2C(=O)CC(SC[C@H](NC(=O)[C@@H](Cc3c[nH]c4ccccc34)NC(=O)[C@@H](Cc3c[nH]c4ccccc34)NC(=O)[C@@H](NC(=O)[C@@H](Cc3c[nH]c4ccccc34)NC(=O)[C@H](Cc3ccc(O)cc3)NC(=O)[C@@H](N)CC(=O)O)C(C)C)C(N)=O)C2=O)C1=O)NC(=O)[C@H](Cc1ccccc1)NC(=O)CNC(=O)[C@@H]1C[C@@H](O)CN1C(=O)[C@@H]1CCCN1C(=O)[C@H](CCCNC(=N)N)NC(=O)[C@H](N)CCCNC(=N)N)C(=O)N[C@@H](CCCNC(=N)N)C(=O)O (stereo partly drawn) [CP-0417] (HELM PEPTIDE1{[dR].R.P.[Hyp].G.F.C.[dF].L.R}|PEPTIDE2{D.Y.[dW].V.[dW].[dW].C.[am]}|CHEM1{[O=C1CC([*:1])C(=O)N1CCCCCCN1C(=O)CC([*:2])C1=O]}$PEPTIDE1,CHEM1,7:R3-1:R1|PEPTIDE2,CHEM1,7:R3-1:R2$$$V2.0)
Kb [6]: 10 nM | IC50 [7]: 2510 nM

— patent US5620958A, “Bradykinin antagonists” (Coretech, Inc., priority 1994, dated 1997)
